Results on five compounds are retold here after patent EP4603105A1, “PHARMACEUTICAL COMPOSITION CONTAINING CYCLIC COMPOUND HAVING SELECTIVE KRAS INHIBITORY EFFECT AGAINST HRAS AND NRAS” (CHUGAI SEIYAKU KABUSHIKI KAISHA, priority 2022, dated 2024).

Assay [1] has as its target GDP-bound KRAS wild-type protein (Homo sapiens, UniProt P01116). Put plainly: Binding to KRAS by surface plasmon resonance (SPR), dissociation constant KD. The gist of the method: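 Measured at 30°C: SPR with GDP-loaded, E. coli-expressed biotin-Avi RAS captured (~100–300 RU), ascending 75 s compound injections, HBS pH 7.4 with GDP, MgCl2, 4% DMSO. KD from 1:1 fit.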
The target in assay [2] is GDP-bound NRAS wild-type protein (Homo sapiens, UniProt P01111). Put plainly: Binding to NRAS by surface plasmon resonance (SPR), KD and KD ratio to KRAS. The essentials:
(§1)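 Affinity is measured by surface plasmon resonance at 30°C against captured, GDP-loaded RAS carrying a biotinylated Avi tag. Compounds are titrated by single-cycle kinetics, and KD comes from a 1:1 fit.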

The next assay has as its target HRAS wild-type protein (Homo sapiens, UniProt P01112). Put plainly: Binding to HRAS by surface plasmon resonance (SPR), KD and KD ratio to KRAS. The essentials:
as §1

Assay [3] relates to human lung cancer strain NCI-H441. Format: cell-based. The gist of the method:
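Readout: […] after the ATP-based reagent. Compound: serial dilutions in dimethyl sulfoxide.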

[4] abbreviates: Single Cycle Kinetics, 1:1 binding model.
Setting [5] is: ratio of the KD value with respect to GDP-bound NRAS wild-type protein to the KD value with respect to KRAS.
[6] abbreviates: ratio of the KD value with respect to HRAS wild-type protein to the KD value with respect to KRAS.
Where [7] appears, read: ratio of KD for GDP-bound NRAS wild-type protein to KD for KRAS.
Where [8] appears, read: ratio of KD for HRAS wild-type protein to KD for KRAS.

*1 amine or outer side, *2 acyl side, *3 side chain or, on linkers, in order; H or OH if unused. Where a SMILES comes first, the peptide text is derived from it. Bridges are numbered along the chain shown (N, C = ends). [ ]: non-standard residue; d: D form. The star is where a group is joined. X6 = CC(C)(C)CCN([C@@H](Cc1ccc(C(F)(F)F)cc1)C(=O)[*:2])[*:1]; hPhe(3-Cl-4-CF3) = N[C@@H](CCc1ccc(C(F)(F)F)c(Cl)c1)C(=O)O; NPrPhe(4-CF3) = CCCN[C@@H](Cc1ccc(C(F)(F)F)cc1)C(=O)O; NMeGly(cPent) = CN[C@H](C(=O)O)C1CCCC1; Pro(4S-Me) = C[C@@H]1CN[C@H](C(=O)O)C1; NMeD = CN[C@@H](CC(=O)O)C(=O)O; NMeL = CN[C@@H](CC(C)C)C(=O)O; Morpholide = C1CN(*)CCO1; NMeA = CN[C@@H](C)C(=O)O; Ac5c = NC1(C(=O)O)CCCC1; Aze = O=C(O)[C@@H]1CCN1; Sar = CNCC(=O)O

HRAS wild-type protein, sequence (P01112 whole entry): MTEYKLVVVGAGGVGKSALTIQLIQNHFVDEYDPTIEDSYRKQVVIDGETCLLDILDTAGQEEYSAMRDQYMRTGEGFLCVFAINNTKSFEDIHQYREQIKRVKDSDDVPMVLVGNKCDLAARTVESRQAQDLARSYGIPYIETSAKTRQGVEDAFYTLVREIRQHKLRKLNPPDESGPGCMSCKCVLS
GDP-bound KRAS wild-type protein, sequence (P01116 1-188 isoform P01116-2): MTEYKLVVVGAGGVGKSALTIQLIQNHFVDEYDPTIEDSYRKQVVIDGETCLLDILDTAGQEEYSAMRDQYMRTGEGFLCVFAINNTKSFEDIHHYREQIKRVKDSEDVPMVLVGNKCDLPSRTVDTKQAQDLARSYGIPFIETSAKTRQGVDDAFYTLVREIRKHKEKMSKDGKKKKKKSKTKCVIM
GDP-bound NRAS wild-type protein, sequence (P01111 whole entry): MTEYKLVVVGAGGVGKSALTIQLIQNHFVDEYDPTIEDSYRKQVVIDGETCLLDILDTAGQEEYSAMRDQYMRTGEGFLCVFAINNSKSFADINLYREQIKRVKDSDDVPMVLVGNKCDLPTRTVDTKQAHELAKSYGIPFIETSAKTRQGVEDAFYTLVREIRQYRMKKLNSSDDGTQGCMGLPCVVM

Compound `CCCOC[C@H]1C(=O)N[C@@H]([C@@H](C)CC)C(=O)N(C)CC(=O)N(C)[C@H]2C/C=C\CCN(C2=O)[C@@H](Cc2ccc(C)cc2)C(=O)N(C)CC(=O)N[C@@H](CCc2cc(F)c(C(F)(F)F)c(F)c2)C(=O)N2C[C@H](CCC)C[C@H]2C(=O)NC2(CCC2)C(=O)N(C)[C@@H](C2CCCC2)C(=O)N(C)[C@H](C(=O)N(C)C)CC(=O)N1C` [PP2232] had a Kd in assay [1] (setting [4]) of 0.22 nM. In addition, the “NRAS /KRAS” value in assay [2] (setting [5]) was “A (a compound having 10 or more and less than 20 is denoted as A)”. In addition, the “HRAS /KRAS” value on HRAS wild-type protein (setting [6]) was “A (a compound having 10 or more and less than 20 is denoted as A)”. The compound further gave an IC50 in assay [3] of 18.7 nM.
In the case of `CC[C@H](C)[C@@H]1NC(=O)[C@H](CC)N(C)C(=O)C[C@@H](C(=O)N(C)C)N(C)C(=O)[C@H](C2CCCC2)N(C)C(=O)C2(CC(C)(C)C2)NC(=O)[C@@H]2C[C@@H](C)CN2C(=O)[C@H](CCc2ccc(C(F)(F)F)c(Cl)c2)NC(=O)CN(C)C(=O)[C@H](Cc2ccc(C)cc2)N2CC/C=C\C[C@@H](C2=O)N(C)C(=O)CN(C)C1=O` [PP1846], the Kd in assay [1] (setting [4]) stood at 0.1 nM. Moreover, in assay [2] (ratio of KD value for GDP-bound NRAS wild-type protein to KD value for KRAS (SPR)), the “NRAS /KRAS” value was “A (a compound having 10 or more and less than 20 is denoted as A)”. For the same compound, the “HRAS /KRAS” value at HRAS wild-type protein (ratio of KD value for HRAS wild-type protein to KD value for KRAS (SPR)) was “B (a compound having 3 or more and less than 10 is denoted as B)”. This compound came in with a half-maximal inhibitory concentration (IC50) in assay [3] of 9.8 nM.
Take `CCCN1C(=O)CN(C)C(=O)[C@@H]2CCN2C(=O)[C@H]([C@@H](C)CC)NC(=O)[C@H](CC(C)C)N(C)C(=O)C[C@@H](C(=O)N2CCOCC2)N(C)C(=O)[C@H](C2CCCC2)N(C)C(=O)C2(CCCC2)NC(=O)[C@@H]2C[C@H](C)CN2C(=O)[C@H](CCc2ccc(C(F)(F)F)c(Cl)c2)NC(=O)CN(C)C(=O)[C@@H]1Cc1ccc(C(F)(F)F)cc1` [PP0453] ([NMeL]I[Aze][Sar][NPrPhe(4-CF3)][Sar][hPhe(3-Cl-4-CF3)][Pro(4S-Me)][Ac5c][NMeGly(cPent)][NMeD]-Morpholide; lactam N-11): the Kd in assay [1] (setting [4]) turned out to be 1.2 nM. Also, the “NRAS /KRAS” value in assay [2] (setting [5]) was “B (a compound having 3 or more and less than 10 is denoted as B)”. The “HRAS /KRAS” value on HRAS wild-type protein (setting [6]) is “C (A compound having a KD ratio of 0.1 or more and less than 3 is denoted as C)”. Moreover, the IC50 in assay [3] is 20.3 nM.
In assay [1] (Single Cycle Kinetics), `CCO[C@@H]1CCN2C(=O)[C@H](CCc3cc(F)c(C(F)(F)F)c(F)c3)NC(=O)CN(C)C(=O)[C@H](Cc3ccc(C(F)(F)F)cc3)N3CCCCC[C@@H](C3=O)N(C)C(=O)CN(C)C(=O)[C@H]([C@@H](C)CC)NC(=O)[C@H](CC(C)C)N(C)C(=O)C[C@@H](C(=O)N3CCOCC3)N(C)C(=O)[C@H](C3CCCC3)N(C)C(=O)C3(CCC3)NC(=O)[C@H]12` [PP1082] yielded a dissociation constant Kd of 3.5 nM. In addition, the “NRAS /KRAS” value in assay [2] (setting [7]) is “A (a compound having 10 or more and less than 20 is denoted as A)”. At HRAS wild-type protein (setting [8]), the “HRAS /KRAS” value was “B (a compound having 3 or more and less than 10 is denoted as B)”. Besides, inhibition in assay [3] was half-maximal at 300 nM (IC50).
The compound `CC[C@H](C)[C@@H]1NC(=O)[C@H](CC(C)C)N(C)C(=O)C[C@@H](C(=O)N2CCOCC2)N(C)C(=O)[C@H](C2CCCC2)N(C)C(=O)C2(CCCC2)NC(=O)[C@@H]2CCCN2C(=O)[C@H](CCc2ccc(C(F)(F)F)c(Cl)c2)NC(=O)CN(C)C(=O)[C@H](Cc2ccc(C(F)(F)F)cc2)N(CCC(C)(C)C)C(=O)[C@@H]2CCN2C(=O)[C@H](C)N(C)C1=O` [PP0113] ([NMeL]I[NMeA][Aze][X6][Sar][hPhe(3-Cl-4-CF3)]P[Ac5c][NMeGly(cPent)][NMeD]-Morpholide; lactam N-11) registered a Kd in assay [1] (1:1 binding model) of 0.75 nM. Further, the “NRAS /KRAS” value in assay [2] (setting [7]) is “C (A compound having a KD ratio of 0.1 or more and less than 3 is denoted as C)”. Also, on HRAS wild-type protein (setting [8]), the “HRAS /KRAS” value was “B (a compound having 3 or more and less than 10 is denoted as B)”. In assay [3], this compound displayed an IC50 of 7.1 nM.

As a reminder, the Kd is the equilibrium constant for the complex coming apart. In general, IC50 refers to the concentration that inhibits the measured activity by half. A low value points to higher potency.
